Measurements taken from patent US7638600B2 (priority 2004, dated 2009).
Converted amounts (≈) assume the structure as drawn.

Experiments:
RSVF1/pDG148::gp41 = assay: microbe, parasite or virus in culture; format: cell-based, B. cereus
RSVF1 = assay: microbe, parasite or virus in culture; format: cell-based, B. cereus; settings: Bacillus cereus, read-out: MIC for fosfomycin
RSVF1/pDG148 = assay: microbe, parasite or virus in culture; format: cell-based, B. cereus; settings: Bacillus cereus, read-out: MIC for fosfomycin
spores = format: cell-based

C[C@@H]1O[C@@H]1P(=O)(O)O [fosfomycin]
increase in resistance to the antibiotic fosfomycin (RSVF1/pDG148::gp41): 4 log
MIC (RSVF1/pDG148::gp41; Bacillus cereus, read-out: MIC for fosfomycin): 500 µg/mL (≈ 3620 µM)
MIC (RSVF1): 62.5 µg/mL (≈ 453 µM)
MIC (RSVF1/pDG148): 62.5 µg/mL (≈ 453 µM)

C[C@@H](N)C(=O)O [D-alanine]
germination frequency (spores): < 10%

C[C@H](N)C(=O)O [L-alanine]
spores converted to heat sensitive forms (spores): > 99%
